Calls of active or inactive are those of the source. The calls are words filed in the database; no cut-off is given here.
Assays:
[1] = biological target: T1, Bromodomain-containing protein 4 (Homo sapiens, UniProt O60885); test: Protac activity at BRD4 short isoform in human MV4-11 cells at 100 nM for 12 hrs by immunoblot analysis; assay type: cell-based
[2] = biological target: T1, Bromodomain-containing protein 4; test: Inhibition of BRD4-BD1 (unknown origin) preincubated for 30 mins followed by substrate addition and measured after 3 hr by HTRF assay
[3] = biological target: T1, Bromodomain-containing protein 4; test: Protac activity at BRD4 short isoform in human MV4-11 cells at 100 nM for 24 hrs by immunoblot analysis; assay type: cell-based
[4] = biological target: T1, Bromodomain-containing protein 4; test: Inhibition of BRD4-BD2 (unknown origin) preincubated for 30 mins followed by substrate addition and measured after 3 hr by HTRF
[5] = biological target: Bromodomain-containing protein 2 (Homo sapiens) (UniProt P25440); test: Protac activity at BRD2 in human MV4-11 cells at 100 nM measured after 24 hrs by immunoblot analysis; assay type: cell-based
[6] = biological target: Bromodomain-containing protein 3 (Homo sapiens) (UniProt Q15059); test: Protac activity at BRD3 in human MV4-11 cells at 100 nM measured after 4 hrs by immunoblot analysis; assay type: cell-based
[7] = biological target: Bromodomain-containing protein 2 (Homo sapiens) (UniProt P25440); test: Protac activity at BRD2 in human MV4-11 cells at 100 nM measured after 4 hrs by immunoblot analysis; assay type: cell-based
[8] = biological target: Bromodomain-containing protein 3 (Homo sapiens) (UniProt Q15059); test: Protac activity at BRD3 in human MV4-11 cells at 100 nM measured after 24 hrs by immunoblot analysis; assay type: cell-based
[9] = test system: MV4-11; test: Cell cycle arrest in human MV4-11 cells assessed as accumulation at G2/M phase at 0.1 uM for 24 hrs by PI/RNase staining based flow cytometry analysis; assay type: functional
[10] = test system: MV4-11; test: Antiproliferative activity against human MV4-11 cells incubated for 72 hrs by CCK8 assay; assay type: functional, cell-based; details: MV4-11, 72 h
[11] = test system: MV4-11; test: Anti-proliferative activity in human MV4-11 cells assessed as downregulation of c-myc levels at 100 nM incubated for 24 hrs by western blot analysis; assay type: functional, cell-based
[12] = test system: MV4-11; test: Anti-proliferative activity in human MV4-11 cells assessed as downregulation of c-myc levels at 10 to 1000 nM incubated for 4 hrs by western blot analysis; assay type: functional, cell-based; details: dose 10-1000 nM

Chain of Bromodomain-containing protein 2 (Homo sapiens) (P25440 whole entry, looked up): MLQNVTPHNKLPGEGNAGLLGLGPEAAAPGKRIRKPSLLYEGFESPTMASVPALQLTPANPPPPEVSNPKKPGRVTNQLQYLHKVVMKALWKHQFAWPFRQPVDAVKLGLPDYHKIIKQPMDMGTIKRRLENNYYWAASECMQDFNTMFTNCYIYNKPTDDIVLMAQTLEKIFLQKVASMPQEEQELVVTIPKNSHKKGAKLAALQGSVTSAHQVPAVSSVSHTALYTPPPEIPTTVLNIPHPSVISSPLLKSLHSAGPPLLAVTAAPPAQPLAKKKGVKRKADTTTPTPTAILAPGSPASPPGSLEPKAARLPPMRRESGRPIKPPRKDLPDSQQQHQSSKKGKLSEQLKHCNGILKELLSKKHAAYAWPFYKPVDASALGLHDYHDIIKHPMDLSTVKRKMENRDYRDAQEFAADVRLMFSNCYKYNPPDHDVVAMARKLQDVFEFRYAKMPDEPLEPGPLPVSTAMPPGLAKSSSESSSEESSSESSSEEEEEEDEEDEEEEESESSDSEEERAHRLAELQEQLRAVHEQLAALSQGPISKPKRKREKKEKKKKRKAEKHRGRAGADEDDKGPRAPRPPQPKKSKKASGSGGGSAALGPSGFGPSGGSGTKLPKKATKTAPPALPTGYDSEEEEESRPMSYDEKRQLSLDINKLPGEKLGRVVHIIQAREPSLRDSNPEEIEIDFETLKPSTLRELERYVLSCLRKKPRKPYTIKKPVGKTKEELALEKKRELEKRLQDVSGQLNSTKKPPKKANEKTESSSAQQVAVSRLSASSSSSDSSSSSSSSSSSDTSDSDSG
Chain of Bromodomain-containing protein 3 (Homo sapiens) (Q15059 2-726 limits assumed): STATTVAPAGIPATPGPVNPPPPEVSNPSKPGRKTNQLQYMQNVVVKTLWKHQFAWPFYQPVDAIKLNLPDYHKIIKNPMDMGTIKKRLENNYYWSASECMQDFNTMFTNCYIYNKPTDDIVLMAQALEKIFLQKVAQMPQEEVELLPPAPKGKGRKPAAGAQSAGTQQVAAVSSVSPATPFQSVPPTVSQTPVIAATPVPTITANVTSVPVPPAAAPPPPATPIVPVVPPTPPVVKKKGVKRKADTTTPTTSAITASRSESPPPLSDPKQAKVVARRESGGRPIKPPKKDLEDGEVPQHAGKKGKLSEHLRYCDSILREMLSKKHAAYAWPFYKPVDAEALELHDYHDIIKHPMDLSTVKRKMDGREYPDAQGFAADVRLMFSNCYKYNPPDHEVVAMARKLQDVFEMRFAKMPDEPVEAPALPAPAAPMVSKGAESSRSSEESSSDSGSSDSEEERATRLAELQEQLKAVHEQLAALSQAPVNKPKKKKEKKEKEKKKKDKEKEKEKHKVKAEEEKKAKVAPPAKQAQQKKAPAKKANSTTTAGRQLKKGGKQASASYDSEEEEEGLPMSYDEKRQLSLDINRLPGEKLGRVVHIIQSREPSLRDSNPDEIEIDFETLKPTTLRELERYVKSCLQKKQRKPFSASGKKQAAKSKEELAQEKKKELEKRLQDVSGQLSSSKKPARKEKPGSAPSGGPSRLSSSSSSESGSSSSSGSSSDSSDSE

SMILES	Activity [1]	IC50 [2] [nM]	Activity [3]	IC50 [4] [nM]	Activity [5]	Activity [6]	Activity [7]	Activity [8]	Activity [9]	IC50 [10] [nM]	Activity [11]	Activity [12]
Cn1cc(-c2ccccc2OC2CC2)c2cc(C(=O)NCc3ccc(C(=O)NCCCCNc4cccc5c4C(=O)N(C4CCC(=O)NC4=O)C5=O)cc3)[nH]c2c1=O (stereo unspecified)	Active	54.3	Active	96.4	–	–	–	–	–	–	–	–
Cn1cc(-c2ccccc2Oc2ccccc2)c2cc(C(=O)NCc3ccc(C(=O)NCCCCNc4cccc5c4C(=O)N(C4CCC(=O)NC4=O)C5=O)cc3)[nH]c2c1=O (stereo unspecified)	Active	34.6	Active	27.2	Active	Active	Active	Active	–	–	–	–
Cn1cc(-c2cc(C(C)(C)O)ccc2Oc2ccccc2)c2cc(C(=O)NCc3ccc(C(=O)NCCCCNc4cccc5c4C(=O)N(C4CCC(=O)NC4=O)C5=O)cc3)[nH]c2c1=O (stereo unspecified)	–	29.5	–	3.82	–	–	–	–	–	–	–	–
CC(C)Oc1ccccc1-c1cn(C)c(=O)c2[nH]c(C(=O)NCc3ccc(C(=O)NCCCCNc4cccc5c4C(=O)N(C4CCC(=O)NC4=O)C5=O)cc3)cc12 (stereo unspecified)	–	83.7	Active	91.5	–	–	–	–	–	–	–	–
Cn1cc(-c2ccccc2Oc2ccccc2)c2cc(C(=O)NCCCCC(=O)NCCCCNc3cccc4c3C(=O)N(C3CCC(=O)NC3=O)C4=O)[nH]c2c1=O (stereo unspecified)	–	185	Active	24.3	Active	Active	Active	Active	–	–	–	–
COc1cc(C(=O)NCCOCCOCCOCCNC(=O)C[C@@H]2N=C(c3ccc(Cl)cc3)c3c(sc(C)c3C)-n3c(C)nnc32)ccc1NC(=O)[C@@H]1N[C@@H](CC(C)(C)C)[C@](C#N)(c2ccc(Cl)cc2F)[C@H]1c1cccc(Cl)c1F	–	–	Active	–	–	–	–	–	–	–	–	–
Cn1cc(-c2ccccc2Oc2ccccc2)c2cc(C(=O)NCCCCCCNc3cccc4c3C(=O)N(C3CCC(=O)NC3=O)C4=O)[nH]c2c1=O (stereo unspecified)	–	441	Active	39.4	Active	Active	Active	Active	–	–	–	–
Cn1cc(-c2cccc(C(C)(C)O)c2)c2cc(C(=O)NCc3ccc(C(=O)NCCCCNc4cccc5c4C(=O)N(C4CCC(=O)NC4=O)C5=O)cc3)[nH]c2c1=O (stereo unspecified)	–	45.4	–	73	–	–	–	–	–	–	–	–
Cc1sc2c(c1C)C(c1ccc(Cl)cc1)=N[C@@H](CC(=O)NCCCCCCCCNC(=O)COc1cccc3c1C(=O)N(C1CCC(=O)NC1=O)C3=O)c1nnc(C)n1-2 (stereo partly specified)	–	–	–	–	Active	Active	Active	Active	Active	10.3	Active	Active
CC(C)Oc1ccc(C(C)(C)O)cc1-c1cn(C)c(=O)c2[nH]c(C(=O)NCc3ccc(C(=O)NCCCCNc4cccc5c4C(=O)N(C4CCC(=O)NC4=O)C5=O)cc3)cc12 (stereo unspecified)	–	24.6	–	13.9	–	–	–	–	–	–	–	–
Cn1cc(-c2ccccc2)c2cc(C(=O)NCc3ccc(C(=O)NCCCCNc4cccc5c4C(=O)N(C4CCC(=O)NC4=O)C5=O)cc3)[nH]c2c1=O (stereo unspecified)	–	99.8	–	296	–	–	–	–	–	–	–	–
CCNC(=O)c1cc2c(-c3cc(C(C)(C)O)ccc3Oc3c(C)cc(F)cc3C)cn(C)c(=O)c2[nH]1 [ABBV-744]	–	–	–	–	–	–	–	–	–	153	–	–
Cn1cc(-c2ccccc2Oc2ccccc2)c2cc(C(=O)NCCCCCC(=O)NCCCCNc3cccc4c3C(=O)N(C3CCC(=O)NC3=O)C4=O)[nH]c2c1=O (stereo unspecified)	–	278	Active	38.8	Active	Active	Active	Active	–	–	–	–
Cn1cc(-c2ccccc2Oc2ccccc2)c2cc(C(=O)NCCCCCCC(=O)NCCCCNc3cccc4c3C(=O)N(C3CCC(=O)NC3=O)C4=O)[nH]c2c1=O (stereo unspecified)	–	332	Active	35.7	Active	Active	Active	Active	–	–	–	–
Cn1cc(-c2cc(C(C)(C)O)ccc2OC2CC2)c2cc(C(=O)NCc3ccc(C(=O)NCCCCNc4cccc5c4C(=O)N(C4CCC(=O)NC4=O)C5=O)cc3)[nH]c2c1=O (stereo unspecified)	–	22.7	–	7.79	–	–	–	–	–	–	–	–
C=C(C)c1ccc(OC(C)C)c(-c2cn(C)c(=O)c3[nH]c(C(=O)NCc4ccc(C(=O)NCCCCNc5cccc6c5C(=O)N(C5CCC(=O)NC5=O)C6=O)cc4)cc23)c1 (stereo unspecified)	–	119	Active	101	–	–	–	–	–	–	–	–
Cn1cc(-c2ccccc2Oc2ccccc2)c2cc(C(=O)NCCCCNc3cccc4c3C(=O)N(C3CCC(=O)NC3=O)C4=O)[nH]c2c1=O (stereo unspecified)	–	472	Active	84.9	Active	Active	Active	Active	–	–	–	–
C=C(C)c1ccc(Oc2ccccc2)c(-c2cn(C)c(=O)c3[nH]c(C(=O)NCc4ccc(C(=O)NCCCCNc5cccc6c5C(=O)N(C5CCC(=O)NC5=O)C6=O)cc4)cc23)c1 (stereo unspecified)	–	241	Active	74.1	–	–	–	–	–	–	–	–

From ChEMBL document CHEMBL5154846, “Adjusted degradation of BRD4 S and BRD4 L based on fine structural modifications of the pyrrolopyridone scaffold” (Eur J Med Chem, 2022)
